Laboratory results published in ChEMBL document CHEMBL1201862, “PubChem BioAssay data set” (2004).
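Method: 48-hour compound exposure of cells in 96-well plates, five concentrations, linear interpolation of endpoints. The concentration for 50% growth inhibition is given as GI50.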 Calls of active or inactive are those of the source. Cut-off read from the data, not from the text of the source: active = GI50 up to about 1.1 µM and inactive = higher.

Columns and labels:
Assay in all cases: growth of human tumour cells (NCI), 48 h
HOP-92 = system: HOP-92
SNB-75 = system: SNB-75
UACC-257 = system: UACC-257
OVCAR-5 = system: OVCAR-5
HL-60 = system: HL-60
NCI-H23 = system: NCI-H23
786-0 = system: 786-0
ACHN = system: ACHN
COLO 205 = system: COLO 205
A549 = system: A549
RXF 393 = system: RXF 393
SN12C = system: SN12C
UO-31 = system: UO-31
SK-MEL-2 = system: SK-MEL-2
IGROV-1 = system: IGROV-1
NCI-H226 = system: NCI-H226
A498 = system: A498
M14 = system: M14
OVCAR-4 = system: OVCAR-4

Measured: GI50

NC1CCCCC1.O=C(O)C(CP(=O)(O)O)=C(Cl)Cl
inactive: HOP-92 > 100 µM | SNB-75 > 100 µM | UACC-257 > 100 µM | OVCAR-5 > 100 µM | HL-60 > 100 µM | NCI-H23 > 100 µM | 786-0 > 100 µM | ACHN > 100 µM | COLO 205 > 100 µM | A549 > 100 µM | RXF 393 > 100 µM | SN12C > 100 µM | UO-31 > 100 µM | SK-MEL-2 > 100 µM | IGROV-1 > 100 µM | NCI-H226 > 100 µM

COc1cc(C(C)c2cc3c(cc2OCCN)OCO3)cc(OC)c1OC (centres undefined)
inactive: SNB-75 18.5 µM | UACC-257 6.7 µM | OVCAR-5 46.6 µM | HL-60 20 µM | NCI-H23 31.8 µM | 786-0 > 100 µM | ACHN > 100 µM | COLO 205 > 100 µM | A549 > 100 µM | RXF 393 21.8 µM | A498 > 100 µM | SN12C > 100 µM | UO-31 50.8 µM | M14 > 100 µM | OVCAR-4 > 100 µM | SK-MEL-2 64.3 µM | IGROV-1 > 100 µM | NCI-H226 32.1 µM

CC(SC(=S)Nc1cccc(F)c1)C(=O)O (centres undefined)
inactive: UACC-257 16.6 µM | OVCAR-5 46.5 µM | HL-60 13.3 µM | NCI-H23 21 µM | 786-0 34.4 µM | ACHN 26.5 µM | COLO 205 > 10 µM | A549 31.7 µM | RXF 393 14.2 µM | A498 26.7 µM | SN12C 50.7 µM | UO-31 24.9 µM | M14 16.8 µM | OVCAR-4 > 100 µM | SK-MEL-2 24.1 µM | IGROV-1 3.85 µM | NCI-H226 20.1 µM

Cc1c2c(ccc3ccccc32)c[n+]2ccccc12
inactive: HOP-92 40.6 µM | SNB-75 4.21 µM | UACC-257 10.2 µM | OVCAR-5 55.7 µM | HL-60 28.4 µM | NCI-H23 4.15 µM | 786-0 10.1 µM | ACHN 44.4 µM | COLO 205 13 µM | A549 1.44 µM | UO-31 20.9 µM | M14 19.7 µM | OVCAR-4 12 µM | SK-MEL-2 15.8 µM | NCI-H226 5.3 µM

COC(=O)/C(C#N)=C1\CCC(O)N1 (centres undefined)
inactive: SNB-75 > 100 µM | UACC-257 > 100 µM | OVCAR-5 > 100 µM | HL-60 > 100 µM | NCI-H23 > 100 µM | 786-0 > 100 µM | ACHN > 100 µM | COLO 205 > 100 µM | A549 > 100 µM | RXF 393 > 100 µM | SN12C > 100 µM | UO-31 > 100 µM | M14 > 100 µM | OVCAR-4 > 100 µM | SK-MEL-2 > 100 µM | IGROV-1 > 100 µM | NCI-H226 > 100 µM

COc1ccc(C(=O)Nc2ccccc2C#N)cc1
inactive: HOP-92 > 100 µM | SNB-75 51.1 µM | UACC-257 > 100 µM | OVCAR-5 > 100 µM | HL-60 54.6 µM | NCI-H23 > 100 µM | 786-0 > 100 µM | ACHN > 100 µM | COLO 205 > 100 µM | A549 > 100 µM | RXF 393 > 100 µM | A498 > 100 µM | SN12C > 100 µM | OVCAR-4 > 100 µM | SK-MEL-2 > 100 µM | IGROV-1 > 100 µM

N=C(N)Cn1cnc2ccccc21
inactive: SNB-75 > 100 µM | UACC-257 > 100 µM | OVCAR-5 > 100 µM | HL-60 > 100 µM | NCI-H23 > 100 µM | 786-0 > 100 µM | ACHN > 100 µM | COLO 205 > 100 µM | A549 > 100 µM | RXF 393 > 100 µM | A498 > 100 µM | SN12C > 100 µM | UO-31 > 100 µM | M14 > 100 µM | SK-MEL-2 > 100 µM | IGROV-1 > 100 µM | NCI-H226 > 100 µM

CC/N=C(/C#N)NCC
inactive: HOP-92 > 100 µM | SNB-75 > 100 µM | UACC-257 55.3 µM | OVCAR-5 > 100 µM | HL-60 > 100 µM | NCI-H23 > 100 µM | 786-0 63 µM | ACHN > 100 µM | COLO 205 99.3 µM | A549 > 100 µM | A498 > 100 µM | SN12C > 100 µM | UO-31 > 100 µM | M14 > 100 µM | OVCAR-4 > 100 µM | SK-MEL-2 > 100 µM | IGROV-1 > 100 µM | NCI-H226 > 100 µM

O=C(NC(=S)Nc1ccccc1)c1ccc([N+](=O)[O-])cc1
inactive: HOP-92 35.9 µM | SNB-75 > 100 µM | UACC-257 60.3 µM | OVCAR-5 2.28 µM | HL-60 36.8 µM | NCI-H23 4.8 µM | 786-0 > 100 µM | ACHN 83.9 µM | COLO 205 47.3 µM | A549 41.9 µM | SN12C > 100 µM | UO-31 45.8 µM | M14 > 100 µM | OVCAR-4 3.4 µM | IGROV-1 71.9 µM

Cn1c(C2CCCc3c2c2ccccc2n3C)cc2ccccc21 (centres undefined)
inactive: HOP-92 1.5 µM | UACC-257 90.2 µM | OVCAR-5 136 µM | HL-60 65.5 µM | NCI-H23 40.2 µM | 786-0 > 318 µM | ACHN > 318 µM | COLO 205 140 µM | A549 128 µM | RXF 393 95.1 µM | SN12C 222 µM | SK-MEL-2 85.7 µM | IGROV-1 31.6 µM | NCI-H226 216 µM

N=c1c2ccccc2sc2nc3ccccc3n12
inactive: HOP-92 > 100 µM | UACC-257 > 100 µM | OVCAR-5 > 100 µM | HL-60 > 100 µM | NCI-H23 > 100 µM | 786-0 97.5 µM | ACHN > 100 µM | COLO 205 > 100 µM | A549 > 100 µM | RXF 393 > 100 µM | A498 > 100 µM | SN12C > 100 µM | UO-31 > 100 µM | OVCAR-4 33.9 µM | SK-MEL-2 > 100 µM | IGROV-1 > 100 µM | NCI-H226 57.9 µM

CCCCCCCCCC[C@@H](O)[C@@H]1CC[C@H]([C@H]2CC[C@@H]([C@@H](O)CCCCCCCCCC[C@H]3CC(CC(C)=O)C(=O)O3)O2)O1 (some centres undefined)
inactive: HOP-92 14.7 µM | SNB-75 12 µM | OVCAR-5 18 µM | 786-0 11.4 µM | COLO 205 13.4 µM | A549 8.77 µM | A498 16.2 µM | SN12C 10.3 µM | M14 11.8 µM | SK-MEL-2 14.4 µM | IGROV-1 12.8 µM | NCI-H226 3.09 µM
active: UACC-257 0.955 µM | HL-60 < 0.01 µM | NCI-H23 < 0.01 µM | UO-31 1.08 µM | OVCAR-4 < 0.01 µM

C/C(=N/NC(N)=S)C(CN(C)C)C(C1=C(O)c2ccccc2OC1)c1ccccc1 (centres undefined)
inactive: SNB-75 > 100 µM | UACC-257 > 100 µM | OVCAR-5 > 100 µM | HL-60 > 100 µM | NCI-H23 > 100 µM | 786-0 > 100 µM | ACHN > 100 µM | COLO 205 > 100 µM | A549 > 100 µM | RXF 393 > 100 µM | A498 > 100 µM | SN12C > 100 µM | UO-31 > 100 µM | M14 > 100 µM | OVCAR-4 > 100 µM | SK-MEL-2 > 100 µM | IGROV-1 > 100 µM | NCI-H226 > 100 µM

CCCCCCCCCCCC(=O)CC(=O)c1c(O)cccc1O
inactive: HOP-92 20.4 µM | SNB-75 19.4 µM | UACC-257 17.5 µM | OVCAR-5 15.5 µM | HL-60 34.9 µM | NCI-H23 19.6 µM | 786-0 23.3 µM | ACHN 19.2 µM | COLO 205 17.3 µM | A549 17.9 µM | RXF 393 17.7 µM | SN12C 18.7 µM | UO-31 14.5 µM | M14 18 µM | OVCAR-4 17.3 µM | SK-MEL-2 14.1 µM | IGROV-1 18.6 µM | NCI-H226 16.7 µM

O=C(O)C1CCC(=O)N1C(=O)C(Cl)c1ccccc1 (centres undefined)
inactive: HOP-92 > 100 µM | SNB-75 > 100 µM | UACC-257 > 100 µM | OVCAR-5 > 100 µM | HL-60 > 100 µM | NCI-H23 > 100 µM | 786-0 > 100 µM | ACHN > 100 µM | COLO 205 > 100 µM | A549 > 100 µM | A498 > 100 µM | SN12C > 100 µM | UO-31 > 100 µM | M14 > 100 µM | OVCAR-4 > 100 µM | SK-MEL-2 > 100 µM | IGROV-1 > 100 µM | NCI-H226 > 100 µM

OCCSCC/C(=N\N=C(/CCSCCO)c1ccccc1)c1ccccc1
inactive: HOP-92 31.1 µM | UACC-257 > 100 µM | OVCAR-5 > 100 µM | HL-60 88.5 µM | NCI-H23 > 100 µM | 786-0 46.2 µM | ACHN 74.5 µM | COLO 205 > 100 µM | A549 > 100 µM | RXF 393 36.2 µM | SN12C > 100 µM | UO-31 91.4 µM | M14 > 100 µM | OVCAR-4 61.4 µM | SK-MEL-2 84.7 µM | IGROV-1 > 100 µM | NCI-H226 > 100 µM

O=C(CP(=O)(c1ccccc1)c1ccccc1)c1cccc(C(=O)CP(=O)(c2ccccc2)c2ccccc2)c1
inactive: SNB-75 20.4 µM | UACC-257 > 100 µM | OVCAR-5 58.6 µM | HL-60 > 100 µM | 786-0 37.8 µM | ACHN > 100 µM | COLO 205 > 100 µM | A549 > 100 µM | RXF 393 24.7 µM | SN12C > 100 µM | UO-31 20.3 µM | M14 > 100 µM | OVCAR-4 > 100 µM | SK-MEL-2 49.9 µM | IGROV-1 55.2 µM | NCI-H226 95.1 µM
